Read-outs that look alike come from different tables or passages of the source.
Legend:
Assay type in all cases: cell-based, human
[1] = test system: MYB mRNA; experiment: Splicing RT-qPCR assay, MYB canonical (CJ) and alternative (AJ) junction mRNA; settings: Homo sapiens; for AC50: read-out: MYB AJ (AC50, increase in alternative junction mRNA)
In short: (§1)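 Canonical (CJ) and alternative-exon (AJ) junction mRNAs quantified by one-step RT-qPCR in cell lysates, normalized to housekeeping PPIA for A673 and GAPDH or GUSB for K562. Cells were exposed 24 h at 37 °C to 11-point 3-fold compound series from 10 uM final, with DMSO at or below 0.25%.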

[2] = test system: SMN2 mRNA; experiment: Splicing RT-qPCR gene panel, SMN2 canonical junction (CJ) mRNA; settings: Homo sapiens, Tables 4A/4B, read-out: SMN2 (IC50, decrease in CJ mRNA, gene panel)
In short: (§2)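 A673 or K562 cells were treated 24 h at 37 °C with an 11-point 3-fold dilution series (top 10 uM, ≤0.25% DMSO). Canonical-junction mRNA was measured in lysates by one-step RT-qPCR, normalized to GAPDH, GUSB or PPIA and DMSO control (2^(−ΔΔCt)), expressed as percentage response.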

[3] = test system: HTT mRNA; experiment: Splicing RT-qPCR assay, HTT canonical (CJ) and alternative (AJ) junction mRNA; settings: Homo sapiens, A673 or K562 cells, 24 hours compound treatment; for IC50: 24 h, read-out: HTT CJ (IC50, decrease in canonical junction mRNA); for AC50: read-out: HTT AJ (AC50, increase in alternative junction mRNA)
In short: as §1

[4] = test system: Target C mRNA; experiment: Splicing RT-qPCR gene panel, Target C canonical junction (CJ) mRNA; settings: Homo sapiens, Tables 4A/4B, read-out: Target C (IC50, decrease in CJ mRNA, gene panel)
In short: as §2

[5] = test system: HTT mRNA; experiment: Splicing RT-qPCR gene panel, HTT canonical junction (CJ) mRNA; settings: Homo sapiens, Tables 4A/4B, read-out: HTT (IC50, decrease in CJ mRNA, gene panel)
In short: as §2

[6] = 24 h, A673 or K562 cells, 24 hours compound treatment, RT-qPCR
[7] = 24 h, A673 or K562 cells, 24 hours compound treatment, RT-qPCR, read-out: MYB CJ (IC50, decrease in canonical junction mRNA)
[8] = Tables 4A/4B, canonical junction qPCR panel, read-out: MYB (IC50, decrease in CJ mRNA, gene panel)

Row | Compound | IC50 [1, 7] | IC50 [1, 8] | IC50 [2] | IC50 [3] | IC50 [4] | IC50 [5] | AC50 [1, 6] | AC50 [3]
1 | CCn1cc2c(C3OCC(N)CO3)ccc(C(=O)Nc3cc(F)c4nc(C)cn4c3)c2n1 (stereo not shown) [Compound 455, 4-(5-amino-1,3-dioxan-2-yl)-2-ethyl-N-{8-fluoro-2-methylimidazo[1,2-a]pyridin-6-yl}indazole-7-carboxamide] | > 10000 nM | 100 to 1000 nM | 100 to 1000 nM | > 10000 nM | 1000 to 10000 nM | 1000 to 10000 nM | > 10000 nM | > 10000 nM
2 | COc1c(NC(=O)c2ccc(N3CCNCC3)c3cn(C)nc23)cc(C)c2nn(C)cc12 [Compound 456] | > 10000 nM | > 10000 nM | > 10000 nM | > 10000 nM | > 10000 nM | > 10000 nM | 1000 to 10000 nM | > 10000 nM
3 | CCNC1CCN(c2ccc(C(=O)Nc3cn4cc(C)nc4c(F)c3OC)c3nn(C)cc23)CC1 [Compound 459, 4-[4-(ethylamino)piperidin-1-yl]-N-{8-fluoro-7-methoxy-2-methylimidazo [1,2-a]pyridin-6-yl}-2-methylindazole-7-carboxamide] | < 100 nM | < 100 nM | < 100 nM | 100 to 1000 nM | 1000 to 10000 nM | < 100 nM | < 100 nM | 100 to 1000 nM
4 | CCNC1CCN(c2cc(F)c(C(=O)Nc3cc(F)c4nc(C)cn4c3)c3nn(C)cc23)CC1 [Compound 460] | < 100 nM | < 100 nM | < 100 nM | < 100 nM | 100 to 1000 nM | 100 to 1000 nM | < 100 nM | 100 to 1000 nM
5 | Cc1cn2cc(NC(=O)c3ccc(N4CC[C@@H](NC5(CF)CC5)C4)c4cn(C)nc34)cc(F)c2n1 [Compound 461, N-{8-fluoro-2-methylimidazo[1,2-a]pyridin-6-yl}-4-[(3R)-3-{[1-(fluoromethyl)cyclopropyl]amino}pyrrolidin-1-yl]-2-methylindazole-7-carboxamide] | < 100 nM | < 100 nM | < 100 nM | 1000 to 10000 nM | > 10000 nM | 1000 to 10000 nM | 100 to 1000 nM | > 10000 nM

Further lines, with some results ahead:

Row | IC50 [1, 7] | IC50 [1, 8] | IC50 [2] | IC50 [3] | IC50 [4] | IC50 [5] | Compound | AC50 [1, 6] | AC50 [3]
6 | > 10000 nM | > 10000 nM | > 10000 nM | > 10000 nM | > 10000 nM | > 10000 nM | Cc1cn2c(n1)CCC(NC(=O)c1ccc(N3CCNCC3)c3cn(C)nc13)C2 (stereo not shown) [Compound 457, 2-methyl-N-{2-methyl-5H,6H,7H,8H-imidazo[1,2-a]pyridin-6-yl}-4-(piperazin-1-yl) indazole-7-carboxamide] | > 10000 nM | > 10000 nM
7 | < 100 nM | > 10000 nM | > 10000 nM | < 100 nM | > 10000 nM | > 10000 nM | Cc1nc2c(F)cc(NC(=O)c3ccc(N4CCNCC4)c4cn(C)nc34)cn2c1C [Compound 458, N-{8-fluoro-2,3-dimethylimidazo[1,2-a]pyridin-6-yl}-2-methyl-4-(piperazin-1-yl) indazole-7-carboxamide] | < 100 nM | 100 to 1000 nM
8 | < 100 nM | < 100 nM | < 100 nM | 100 to 1000 nM | > 10000 nM | 100 to 1000 nM | Cc1nc2c(F)cc(NC(=O)c3ccc(N4CCNCC4)c4cn(C)nc34)cn2n1 [Compound 462, N-{8-fluoro-2-methyl-[1,2,4]triazolo[1,5-a]pyridin-6-yl}-2-methyl-4-(piperazin-1-yl) indazole-7-carboxamide] | < 100 nM | 100 to 1000 nM
